Test results as given in patent US20190359609A1, “BICYCLIC OGA INHIBITOR COMPOUNDS” (Janssen Pharmaceutica NV, priority 2016, published 2019).
Read-outs that look alike come from different tables or passages of the source.

How the values were obtained:
[1] = biological target: T1, recombinant human Meningioma Expressed Antigen 5 (MGEA5), also referred to as O-GlcNAcase (OGA) (Homo sapiens, UniProt O60502); test: OGA biochemical assay: inhibition of FM-GlcNAc hydrolysis, fluorescence (protocol A 10 nM OGA, 1 h; protocol B 2 nM OGA, 6 h)
T1 construct: Full length OGA enzyme was purchased at OriGene (cat # TP322411); purchased OriGene TP322411
T1 sequence (O60502 1-916): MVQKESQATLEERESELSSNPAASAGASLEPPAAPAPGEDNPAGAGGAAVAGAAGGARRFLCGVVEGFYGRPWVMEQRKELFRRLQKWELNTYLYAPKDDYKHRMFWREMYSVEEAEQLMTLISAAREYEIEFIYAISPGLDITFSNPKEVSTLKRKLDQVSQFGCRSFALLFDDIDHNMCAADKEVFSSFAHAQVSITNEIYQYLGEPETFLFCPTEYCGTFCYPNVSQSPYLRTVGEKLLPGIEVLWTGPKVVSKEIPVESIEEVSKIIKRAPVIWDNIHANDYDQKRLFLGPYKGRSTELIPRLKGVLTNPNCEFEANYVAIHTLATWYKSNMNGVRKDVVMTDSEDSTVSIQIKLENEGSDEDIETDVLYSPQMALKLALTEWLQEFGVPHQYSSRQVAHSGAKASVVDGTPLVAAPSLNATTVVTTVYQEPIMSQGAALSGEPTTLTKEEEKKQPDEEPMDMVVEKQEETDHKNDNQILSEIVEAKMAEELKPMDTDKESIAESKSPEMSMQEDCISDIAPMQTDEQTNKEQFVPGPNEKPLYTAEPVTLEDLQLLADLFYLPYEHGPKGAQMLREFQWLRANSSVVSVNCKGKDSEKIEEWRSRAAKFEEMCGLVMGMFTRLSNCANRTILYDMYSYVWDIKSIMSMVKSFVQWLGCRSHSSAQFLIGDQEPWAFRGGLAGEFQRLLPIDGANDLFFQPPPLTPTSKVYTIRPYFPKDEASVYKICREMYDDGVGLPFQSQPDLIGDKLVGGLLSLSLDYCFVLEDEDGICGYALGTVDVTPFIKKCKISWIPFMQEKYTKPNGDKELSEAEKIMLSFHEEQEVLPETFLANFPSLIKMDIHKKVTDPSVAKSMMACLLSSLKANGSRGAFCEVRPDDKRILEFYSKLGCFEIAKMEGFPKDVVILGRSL
Description: The assay is based on the inhibition of the hydrolysis of fluorescein mono-B-D-N-Acetyl-Glucosamine (FM-GlcNAc) (Mariappa et al. 2015, Biochem J 470:255) by the recombinant human Meningioma Expressed Antigen 5 (MGEA5), also referred to as 0-GlcNAcase (OGA). The hydrolysis FM-GlcNAc (Marker Gene technologies, cat # M1485) results in the formation of β-D-N-glucosamineacetate and fluorescein. The fluorescence of the latter can be measured at excitation wavelength 485 nm and emission wavelength 538 nm. An increase in enzyme activity results in an increase in fluorescence signal. Full length OGA enzyme was purchased at OriGene (cat # TP322411). The enzyme was stored in 25 mM Tris.HCl, pH 7.3, 100 mM glycine, 10% glycerol at −20° C. Thiamet G and GlcNAcStatin were tested as reference compounds (Yuzwa et al. 2008 Nature Chemical Biology 4:483; Yuzwa et al. 2012 Nature Chemical Biology 8:393). The assay was performed in 200 mM Citrate/phosphate buffer supplemented with 0.005% Tween-20. 35.6 g Na2HPO4 2 H2O (Sigma, # C0759) were dissolved in 1 L water to obtain a 200 mM solution. 19.2 g citric acid (Merck, #1.06580) was dissolved in 1 L water to obtain a 100 mM solution. pH of the sodiumphosphate solution was adjusted with the citric acid solution to 7.2. The buffer to stop the reaction consists of a 500 mM Carbonate buffer, pH 11.0. 734 mg FM-GlcNAc were dissolved in 5.48 mL DMSO to obtain a 250 mM solution and was stored at −20° C. OGA was used at a 10 nM (protocol A) or 2 nM (protocol B) concentration and FM-GlcNAc at a 100 uM final concentration. Dilutions were prepared in assay buffer.
50 nl of a compound dissolved in DMSO was dispensed on Black Proxiplate™ 384 Plus Assay plates (Perkin Elmer, #6008269) and 3 μl fl-OGA enzyme mix added subsequently. Plates were pre-incubated for 60 min at room temperature and then 2 μl FM-GlcNAc substrate mix added. […] Plates were briefly centrifuged for 1 min at 1000 rpm and incubate at room temperature for 1 h (10 nM OGA, protocol A) or 6 h (2 nM OGA, protocol B). To stop the reaction 5 μl STOP buffer were added and plates centrifuge again 1 min at 1000 rpm. Fluorescence was quantified in the Thermo Scientific Fluoroskan Ascent or the PerkinElmer EnVision with excitation wavelength 485 nm and emission wavelength 538 nm.
For analysis a best-fit curve is fitted by a minimum sum of squares method. From this an IC50 value and Hill coefficient was obtained. High control (no inhibitor) and low control (saturating concentrations of standard inhibitor) were used to define the minimum and maximum values.

OGA = biological target: T2, OGA (Homo sapiens, UniProt O60502); test: OGA cellular assay: ICC detection of O-GlcNAcylated proteins in HEK293 cells inducible for P301L mutant human Tau; type: cell-based; conditions: 6 hours incubation; for EC50: read-out: Cellular hOGA, pEC50 (converted)
T2 construct: endogenous in cells; host or cells: HEK293 cells inducible for P301L mutant human Tau (2N4R)
T2 sequence (O60502 1-916): T1 sequence (O60502 1-916)
Protocol: HEK293 cells inducible for P301L mutant human Tau (isoform 2N4R) were established at Janssen. Thiamet-G was used for both plate validation (high control) and as reference compound (reference EC50 assay validation). OGA inhibition is evaluated through the immunocytochemical (ICC) detection of O-GlcNAcylated proteins by the use of a monoclonal antibody (CTD110.6; Cell Signaling, #9875) detecting O-GlcNAcylated residues as previously described (Dorfmueller et al. 2010 Chemistry & biology, 17:1250).
Inhibition of OGA will result in an increase of 0-GlcNAcylated protein levels resulting in an increased signal in the experiment. Cell nuclei are stained with Hoechst to give a cell culture quality control and a rough estimate of immediate compounds toxicity, if any. ICC pictures are imaged with a Perkin Elmer Opera Phenix plate microscope and quantified with the provided software Perkin Elmer Harmony 4.1.
Cells were propagated in DMEM high Glucose (Sigma, #D5796) following standard procedures. 2 days before the cell assay cells are split, counted and seeded in Poly-D-Lysine (PDL) coated 96-wells (Greiner, #655946) plate at a cell density of 12,000 cells per cm^2 (4,000 cells per well) in 100 μl of Assay Medium (Low Glucose medium is used to reduce basal levels of GlcNAcylation) (Park et al. 2014 The Journal of biological chemistry 289:13519). At the day of compound test medium from assay plates was removed and replenished with 90 μl of fresh Assay Medium. 10 μl of compounds at a 10fold final concentration were added to the wells. Plates were centrifuged shortly before incubation in the cell incubator for 6 hours. DMSO concentration was set to 0.2%. Medium is discarded by applying vacuum. For staining of cells medium was removed and cells washed once with 100 μl D-PBS (Sigma, #D8537). From next step onwards unless other stated assay volume was always 50 μl and incubation was performed without agitation and at room temperature. Cells were fixed in 50 μl of a 4% paraformaldehyde (PFA, Alpha aesar, #043368) PBS solution for 15 minutes at room temperature. […] Before analysis samples were washed 2 times manually for 5 minutes in ICC base buffer.
Imaging is performed using Perkin Elmer Phenix Opera using a water 20× objective and recording 9 fields per well. Intensity readout at 488 nm is used as a measure of O-GlcNAcylation level of total proteins in wells. To assess potential toxicity of compounds nuclei were counted using the Hoechst staining. IC50-values are calculated using parametric non-linear regression model fitting. As a maximum inhibition Thiamet G at a 200 uM concentration is present on each plate. In addition, a concentration response of Thiamet G is calculated on each plate.

[2] = Enzymatic protocol A (10 nM OGA, 1 h), read-out: Enzymatic Emax (%)
[3] = Enzymatic protocol A (10 nM OGA, 1 h), read-out: Enzymatic hOGA, pIC50 (converted)
[4] = Enzymatic protocol B (2 nM OGA, 6 h), read-out: Enzymatic Emax (%)
[5] = Enzymatic protocol B (2 nM OGA, 6 h), read-out: Enzymatic hOGA, pIC50 (converted)
[6] = comparative table, protocol not given, read-out: Emax (OGA inhibitory activity, comparison with 1,4-disubstituted piperidine comparator)
[7] = comparative table, protocol not given, read-out: pIC50 (OGA inhibitory activity, comparison with 1,4-disubstituted piperidine comparator) (converted)

| SMILES | Emax [1, 2] | IC50 [1, 3] | Emax [1, 4] | IC50 [1, 5] | Emax (OGA) | EC50 (OGA) | Emax [1, 6] | IC50 [1, 7] | OGA inhibitory activity compared with comparator ([1]; greater than the corresponding 1,4-disubstituted piperidine compound (comparator)) | Enzymatic Emax (%) ([1]; Enzymatic protocol B (2 nM OGA, 6 h)) |
| --- | --- | --- | --- | --- | --- | --- | --- | --- | --- | --- |
| CC(=O)Nc1ncc(CN2CC[C@@H](C)[C@H](c3cc4ncccc4[nH]3)C2)s1 (racemic) [Compound 22] | 101% | 41.7 nM | 102% | 22.4 nM | 114% | 20.9 nM |  |  |  |  |
| CC(c1ccc2c(c1)OCCO2)N1CCCC(c2cc3ncccc3[nH]2)C1 (racemic) [Compound 33] |  |  | 98.6% | 55 nM | 107% | 417 nM |  |  |  |  |
| CC(=O)Nc1ncc(S(=O)(=O)N2CCCC(c3cc4ncccc4[nH]3)C2)s1 (single isomer, unassigned) [Compound 4] | 99.7% | 178 nM | 99.4% | 186 nM | 44.3% | > 10000 nM |  |  |  |  |
| CC(=O)Nc1ncc(CN2CCCC(c3cc4ncccc4[nH]3)C2)s1 (single isomer, unassigned) [Compound 6] | 92.3% | 1660 nM | 79.1% | 2690 nM | 66.6% | 3630 nM |  |  |  |  |
| CC(=O)Nc1ncc(CN2CCC[C@H](c3cc4ncccc4[nH]3)C2)s1 (single isomer, unassigned) [Compound 7] | 104% | 18.2 nM | 100% | 25.1 nM | 114% | 21.4 nM | 104% | 18.2 nM | ~1 order of magnitude |  |
| CC(c1ccc2c(c1)OCO2)N1CCCC(c2cc3ncccc3[nH]2)C1 (single isomer, unassigned) [Compound 31] |  |  |  | 26.9 nM | 95.8% | 195 nM |  |  |  | 100.4% |
| CC(=O)Nc1ncc(CN2CCCC(c3cc4cccnc4[nH]3)C2)s1 (centres unmarked) [Compound 8] | 101% | 112 nM | 100% | 105 nM | 113% | 148 nM |  |  |  |  |
| CC(=O)Nc1ncc(CN2CCCC(c3cc4ccncc4[nH]3)C2)s1 (centres unmarked) [Compound 11] |  |  | 100% | 74.1 nM | 103% | 18.2 nM |  |  |  |  |
| CC(=O)Nc1ncc(CN2CCCC(c3cc4cnccc4[nH]3)C2)s1 (centres unmarked) [Compound 12] |  |  | 124% | 42.7 nM | 120% | 17.8 nM |  |  |  |  |
| CC(=O)Nc1ncc(CN2CCCC(c3nc4ncccc4n3C)C2)s1 (centres unmarked) [Compound 20] | 98% | 155 nM |  |  | 95.6% | 2630 nM |  |  |  |  |
| CC(=O)Nc1ncc(CN2CCCC(c3nc4cccnc4n3C)C2)s1 (centres unmarked) [Compound 21] | 101% | 302 nM |  |  | 101% | 2630 nM |  |  |  |  |
| CC(=O)Nc1ncc(CN2CCC(Cc3cc4ncccc4[nH]3)C2)s1 (centres unmarked) [Compound 24] |  |  | 99.8% | 2.14 nM | 98% | 7.94 nM |  |  |  |  |
| CC(=O)Nc1ncc(CN2CCC(Cc3cc4ncccc4n3C)C2)s1 (centres unmarked) [Compound 25] |  |  | 102% | 1.51 nM | 121% | 9.33 nM |  |  |  |  |
| CC(=O)Nc1ncc(CN2CCCC(Cc3cc4ncccc4n3C)C2)s1 (centres unmarked) [Compound 26] |  |  | 101% | 2.4 nM | 118% | < 4.57 nM |  |  |  |  |
| CC(=O)Nc1ncc(CN2CCC(c3cc4ncccc4[nH]3)CC2)s1 [comparator, reference compound] |  |  |  |  |  |  | 103% | 224 nM |  |  |
